The results in this text go back to patent publication US7534800B2, “7-azaindoles as inhibitors of c-Jun N-terminal kinases for the treatment of neurodegenerative disorders” (Eisai R & D Development Co., Ltd., priority 2002, dated 2009).

Chain of JNK3 kinase (P53779 whole entry): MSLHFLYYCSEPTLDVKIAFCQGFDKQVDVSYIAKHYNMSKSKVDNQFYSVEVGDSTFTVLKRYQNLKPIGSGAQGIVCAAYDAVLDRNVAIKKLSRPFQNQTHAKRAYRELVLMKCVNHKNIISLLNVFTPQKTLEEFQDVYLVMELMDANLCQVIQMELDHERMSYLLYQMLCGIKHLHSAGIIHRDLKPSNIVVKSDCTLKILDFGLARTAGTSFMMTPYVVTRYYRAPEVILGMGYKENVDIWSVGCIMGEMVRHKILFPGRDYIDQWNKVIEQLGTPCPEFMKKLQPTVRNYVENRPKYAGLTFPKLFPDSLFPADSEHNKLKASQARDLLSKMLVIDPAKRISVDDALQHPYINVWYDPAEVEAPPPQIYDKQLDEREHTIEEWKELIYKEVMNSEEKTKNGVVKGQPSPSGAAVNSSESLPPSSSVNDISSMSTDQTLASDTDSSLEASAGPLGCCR

This test deals with JNK3 kinase (Homo sapiens, UniProt P53779). Nature of the test: JNK3 SPA assay (phosphorylation of GST-c-Jun, [γ-33P] ATP). Format: biochemical. The conditions noted are these: 3.33 μM ATP, GST-c-Jun substrate, 30 minutes at room temperature. The protocol:
JNK1, JNK27 JNK3—SPA Assay
A typical assay for testing the activity of compounds to inhibit JNK1, JNK2 and JNK3 enzymes is as follows: • 1. Compound is dissolved in DMSO to a convenient concentration and this is diluted in 10% DMSO to a five times concentrate of the desired starting concentration (frequently 1:100). • 2. 10 μl of 500 mM EDTA is added to alternative wells of the Opti-plate row, which will receive kinase reaction plus DMSO. This creates the negative control. • 3. For the JNK2 and JNK3 assay, compounds are prepared in six 2-fold dilutions with water and each concentration is tested in duplicate. For the JNK1 assay compounds are prepared in four 5-fold dilutions with water which are tested in triplicate. Controls are treated identically. • 4. 20 μl per well of each compound concentration is transferred to an Opti-plate, in duplicate. • 5. 30 μl (JNK2/3 SPA) or 50 μl (JNK1 SPA) of substrate solution (25 mM HEPES pH 7.5, 10 mM magnesium acetate with 3.33 μm ATP (JNK2/3) or 2 μM ATP (JNK1), approximately 7.5 kBq [γ-33P] ATP, GST-c-Jun, in water) is added to each well. • 6. 50 μl (JNK2/3 SPA) or 30 μl (JNK1 SPA) of kinase solution (JNK in 25 mM HEPES pH 7.5, 10 mM Mg Acetate) is added to each well.
• 7. The plate is incubated for 30 minutes at room temperature. • 8. 100 μl of bead/stop solution is added to each well (5 mg/ml glutathione-PVT-SPA beads, 40 µM ATP in PBS). • 9. Plates are sealed and incubated for 30 minutes at room temperature, centrifuged for 10 minutes at 2500 g and counted. • 10. The IC50 values are calculated as the concentration of the compound being tested at which the phosphorylation of c-Jun is decreased to 50% of the control value.
With `O=C(NNc1ccccc1)c1c[nH]c2ncc(-c3cccc(F)c3)cc12`, the IC50 (usually the concentration that inhibits the measured activity by half) turned out to be 780 nM. This counts as sub-micromolar.

On to `C#CCNC(=O)c1c[nH]c2ncc(-c3cccc(F)c3)cc12`, for which the IC50 was determined as 850 nM.

`C#CCNC(=O)c1c[nH]c2ncc(-c3ccc(N(C)C)cc3)cc12` had an IC50 of 520 nM.
